# Experimental data reported in publication PMC9888480, “Carboranyl-1,8-naphthalimide intercalators induce lysosomal membrane permeabilization and ferroptosis in cancer cell lines” (Journal of Enzyme Inhibition and Medicinal Chemistry, 2023).
# System: HepG2 cells
# Assay: Mitochondrial membrane potential (MMP) measurement (JC-1)
# Format: cell-based, human
# Conditions: HepG2, 3-h treatment, 4.5 µM; 69.9% in control cells
# Experimental: The HepG2 cells were seeded at the density of 2 × 10^5 cells/well onto 12-well plates and cultured with EMEM at 37 °C under 5% CO2 saturation until 70–80% confluency was reached. […] After incubation, the cells were detached with trypsin (Corning®) and washed twice with 1 ml of DPBS (Capricorn), and alterations in ΔΨm were analysed using the MMP-sensitive cationic dye 5,5′,6,6′-tetrachloro-1,1′,3,3′-tetraethylbenzimidazolylcarbocyanine iodide (JC-1; Thermo Fisher Scientific), which can selectively enter mitochondria and change colour from red to green as the membrane potential decreases. The cells were stained with 2.5 µM JC-1 for 30 min at 37 °C in the dark. The maximum emission wavelengths of JC-1 monomers and “J-aggregates” were ∼ 525 (FL-1 channel) and ∼ 590 (FL-2 channel) nm, respectively. To create a strong, single positive green fluorescence signal, 3 µM FCCP was used. The mean fluorescence intensity representing the intracellular MMP level was analysed after incubation with the dye, with excitation at 488 nm using a FACSCalibur flow cytometer (Becton Dickinson), and the data were analysed using the FlowJo software (Becton Dickinson).
substance,measurement,value
"4-[(6-[(1,7-Dicarba-closo-dodecaborane-1-yl)ethylamino]hexyl)amino]-N-[2-(dimethylamino)ethyl]-3-nitro-1,8-naphthalimide [Compound 35]","MMP, JC-1 aggregates",90.8%
